Test results as given in ChEMBL document CHEMBL1240419, “Synthesis and antibacterial activity of 3-O-carbamoyl derivatives of 6,11-di-O-methylerythromycin A: a novel class of acylides” (2010).
≈ marks a conversion by molar mass, not a printed value.

Experiments:
Type in all cases: functional
Staphylococcus aureus [1] = test: Antibacterial activity against erythromycin-susceptible Staphylococcus aureus ATCC 25923 by broth microdilution method
Staphylococcus aureus [2] = test: Antibacterial activity against erythromycin-resistant, methicillin-susceptible Staphylococcus aureus A265 by broth microdilution method
Staphylococcus aureus [3] = test: Antibacterial activity against erythromycin, methicillin-resistant Staphylococcus aureus A333 by broth microdilution method
Streptococcus pneumoniae [4] = test: Antibacterial activity against erythromycin-susceptible Streptococcus pneumoniae ATCC 49619 by broth microdilution method
Streptococcus pneumoniae [5] = test: Antibacterial activity against erythromycin-resistant Streptococcus pneumoniae 3469 by broth microdilution method
Haemophilus influenzae [6] = test: Antibacterial activity against ampicillin-susceptible Haemophilus influenzae ATCC 49247 by broth microdilution method
Haemophilus influenzae [7] = test: Antibacterial activity against ampicillin-resistant Haemophilus influenzae 3300 by broth microdilution method

CC[C@H]1OC(=O)[C@H](C)[C@@H](OC(=O)NCCc2ccccc2Cl)[C@H](C)[C@@H](O[C@@H]2O[C@H](C)C[C@H](N(C)C)[C@H]2O)[C@](C)(OC)C[C@@H](C)C(=O)[C@@H](C)[C@@H](OC)[C@]1(C)O
MIC (Staphylococcus aureus [1]): 4 µg/mL (≈ 5.09 µM) | MIC (Staphylococcus aureus [2]): 1 µg/mL (≈ 1.27 µM) | MIC (Staphylococcus aureus [3]): > 64 µg/mL | MIC (Streptococcus pneumoniae [4]): 0.125 µg/mL (≈ 0.159 µM) | MIC (Streptococcus pneumoniae [5]): 0.125 µg/mL (≈ 0.159 µM) | MIC (Haemophilus influenzae [6]): 8 µg/mL (≈ 10.2 µM) | MIC (Haemophilus influenzae [7]): 16 µg/mL (≈ 20.4 µM)

CC[C@H]1OC(=O)[C@H](C)[C@@H](OC(=O)NCCc2ccccc2Br)[C@H](C)[C@@H](O[C@@H]2O[C@H](C)C[C@H](N(C)C)[C@H]2O)[C@](C)(OC)C[C@@H](C)C(=O)[C@@H](C)[C@@H](OC)[C@]1(C)O
MIC (Staphylococcus aureus [1]): 4 µg/mL (≈ 4.82 µM) | MIC (Staphylococcus aureus [2]): 4 µg/mL (≈ 4.82 µM) | MIC (Staphylococcus aureus [3]): 64 µg/mL (≈ 77.1 µM) | MIC (Streptococcus pneumoniae [4]): 0.125 µg/mL (≈ 0.151 µM) | MIC (Streptococcus pneumoniae [5]): 8 µg/mL (≈ 9.64 µM) | MIC (Haemophilus influenzae [6]): 8 µg/mL (≈ 9.64 µM) | MIC (Haemophilus influenzae [7]): 4 µg/mL (≈ 4.82 µM)

CC[C@H]1OC(=O)[C@H](C)[C@@H](O[C@H]2C[C@@](C)(OC)[C@@H](O)[C@H](C)O2)[C@H](C)[C@@H](O[C@@H]2O[C@H](C)C[C@H](N(C)C)[C@H]2O)[C@](C)(O)C[C@@H](C)CN(C)[C@H](C)[C@@H](O)[C@]1(C)O [AZITHROMYCIN]
MIC (Staphylococcus aureus [1]): 0.5 µg/mL (≈ 0.668 µM) | MIC (Staphylococcus aureus [2]): 8 µg/mL (≈ 10.7 µM) | MIC (Staphylococcus aureus [3]): > 64 µg/mL | MIC (Streptococcus pneumoniae [4]): 0.5 µg/mL (≈ 0.668 µM) | MIC (Streptococcus pneumoniae [5]): 4 µg/mL (≈ 5.34 µM) | MIC (Haemophilus influenzae [6]): 4 µg/mL (≈ 5.34 µM) | MIC (Haemophilus influenzae [7]): 4 µg/mL (≈ 5.34 µM)

CC[C@H]1OC(=O)[C@H](C)[C@@H](O[C@H]2C[C@@](C)(OC)[C@@H](O)[C@H](C)O2)[C@H](C)[C@@H](O[C@@H]2O[C@H](C)C[C@H](N(C)C)[C@H]2O)[C@](C)(OC)C[C@@H](C)C(=O)[C@H](C)[C@@H](O)[C@]1(C)O [CLARITHROMYCIN]
MIC (Staphylococcus aureus [1]): 0.25 µg/mL (≈ 0.334 µM) | MIC (Staphylococcus aureus [2]): 4 µg/mL (≈ 5.35 µM) | MIC (Staphylococcus aureus [3]): > 64 µg/mL | MIC (Streptococcus pneumoniae [4]): 0.25 µg/mL (≈ 0.334 µM) | MIC (Streptococcus pneumoniae [5]): 2 µg/mL (≈ 2.67 µM) | MIC (Haemophilus influenzae [6]): 8 µg/mL (≈ 10.7 µM) | MIC (Haemophilus influenzae [7]): 8 µg/mL (≈ 10.7 µM)

CC[C@H]1OC(=O)[C@H](C)[C@@H](O[C@H]2C[C@@](C)(OC)[C@@H](O)[C@H](C)O2)[C@H](C)[C@@H](O[C@@H]2O[C@H](C)C[C@H](N(C)C)[C@H]2O)[C@](C)(O)C[C@@H](C)C(=O)[C@H](C)[C@@H](O)[C@]1(C)O [ERYTHROMYCIN]
MIC (Staphylococcus aureus [1]): 0.125 µg/mL (≈ 0.17 µM) | MIC (Staphylococcus aureus [2]): 2 µg/mL (≈ 2.73 µM) | MIC (Staphylococcus aureus [3]): > 64 µg/mL | MIC (Streptococcus pneumoniae [4]): 0.25 µg/mL (≈ 0.341 µM) | MIC (Streptococcus pneumoniae [5]): 1 µg/mL (≈ 1.36 µM) | MIC (Haemophilus influenzae [6]): 16 µg/mL (≈ 21.8 µM) | MIC (Haemophilus influenzae [7]): 16 µg/mL (≈ 21.8 µM)
